Assay results taken from US9624229B2, “Pyrimidine-2-amine compounds and their use as inhibitors of JAK kinases” (Rigel Pharmaceuticals, Inc., priority 2008, dated 2017).
Where two headings read alike, the source gives them in different places.

Molecular target: Ba/F3 V617F cells (Homo sapiens, UniProt O60674, V617F, cells depend on it)
Experiment: Proliferation assay (Cell Titer-Glo, 72 h) utilizing Ba/F3 V617F cells
Type: cell-based, mouse
Conditions: Ba/F3 V617F cells, proliferation
Experimental: Ba/F3 V617F cells are maintained and plated in RPMI with 10% FBS. Plating density for these cells is 1×10^5 cells/mL.
The cells were resuspended in a corresponding medium at a required cell density (see above). 100μ of cell suspension was added to each well of a flat bottom 96 well white plate. The compound was serially diluted in DMSO from 5 mM in 3-fold dilutions, and then diluted 1:250 in the RPMI 1640 medium containing 5% FBS and pen/strep. 100 μL of resulting 2× compound solution was added per well in duplicate and the cells were allowed to proliferate for 72 hours at 37° C.
Proliferation was measured using Cell Titer-Glo. The substrate was thawed and allowed to come to ambient temperature. After removal of top 100 μL of medium from each well, 100 μL of the premixed Cell Titer-Glo reagent was added to each well. The plates were mixed on an orbital shaker for three minutes to induce lysis and incubated at ambient temperature for an additional five minutes to allow the signal to equilibrate. The Luminescence was read on the Wallac Plate Reader.
The results of the ability of the compounds of the invention to inhibit JAK2 activity, when tested in the above assay utilizing Ba/F3 V617F cells, are shown in the following Tables 2-3 wherein the level of activity (i.e., the IC50) for each compound is indicated in Tables 2-3. The compound numbers in Tables 2-3 refers to the compounds disclosed herein as being prepared by the methods disclosed herein: […]

[1] = level of activity to inhibit JAK2, read-out: IC50 (the source's name)
[2] = level of activity given as class symbol, read-out: IC50 (the source's name)

Sequence of Ba/F3 V617F cells (O60674 whole entry V617F): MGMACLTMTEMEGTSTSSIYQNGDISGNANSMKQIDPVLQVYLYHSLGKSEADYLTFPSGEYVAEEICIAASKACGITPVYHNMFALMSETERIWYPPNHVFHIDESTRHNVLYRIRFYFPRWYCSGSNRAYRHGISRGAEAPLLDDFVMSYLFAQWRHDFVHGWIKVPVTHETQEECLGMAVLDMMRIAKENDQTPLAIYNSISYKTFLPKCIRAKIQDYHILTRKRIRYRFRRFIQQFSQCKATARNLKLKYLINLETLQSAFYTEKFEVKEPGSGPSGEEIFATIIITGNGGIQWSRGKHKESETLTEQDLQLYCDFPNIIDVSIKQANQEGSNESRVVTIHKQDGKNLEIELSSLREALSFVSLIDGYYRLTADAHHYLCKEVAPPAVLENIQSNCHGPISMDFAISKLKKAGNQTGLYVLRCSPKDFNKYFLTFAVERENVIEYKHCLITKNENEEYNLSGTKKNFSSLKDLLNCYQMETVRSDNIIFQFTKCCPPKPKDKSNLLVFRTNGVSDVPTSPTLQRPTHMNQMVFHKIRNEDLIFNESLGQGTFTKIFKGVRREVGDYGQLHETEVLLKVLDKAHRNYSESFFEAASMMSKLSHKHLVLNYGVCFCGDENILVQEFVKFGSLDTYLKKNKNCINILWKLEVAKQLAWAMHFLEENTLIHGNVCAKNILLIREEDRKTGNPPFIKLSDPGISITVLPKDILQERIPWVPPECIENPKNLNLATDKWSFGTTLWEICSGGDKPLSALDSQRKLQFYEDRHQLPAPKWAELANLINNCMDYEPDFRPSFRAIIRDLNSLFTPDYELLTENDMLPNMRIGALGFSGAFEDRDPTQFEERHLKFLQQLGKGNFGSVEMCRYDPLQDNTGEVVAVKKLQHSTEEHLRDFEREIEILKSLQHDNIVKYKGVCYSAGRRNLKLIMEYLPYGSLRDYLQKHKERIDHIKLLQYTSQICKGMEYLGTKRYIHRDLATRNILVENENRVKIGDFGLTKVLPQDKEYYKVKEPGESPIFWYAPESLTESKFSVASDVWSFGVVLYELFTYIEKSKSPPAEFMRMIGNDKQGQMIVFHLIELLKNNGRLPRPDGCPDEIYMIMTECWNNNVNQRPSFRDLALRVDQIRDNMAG

Compound | GI50 [1] | GI50 [2]
Cc1cc(Nc2nccc(-c3cnc4c(c3)OC(C)(C)C(=O)N4)n2)ccc1N1CC2CCC(C1)N2C [compound 165, 4-(2,2-dimethyl-3-oxo-3,4-dihydro-2H-pyrido[3,2-b][1,4]oxazin-7-yl)-N-(3-methyl-4-(8-methyl-3,8-diazabicyclo[3.2.1]octan-3-yl)phenyl)pyrimidin-2-amine] | < 1000 nM | –
CN1C[C@@H]2C[C@H]1CN2c1ccc(Nc2nccc(-c3ccc(NC4CCCCC4)nc3)n2)cc1C(F)(F)F [compound 94, 4-(6-(cyclohexylamino)pyridin-3-yl)-N-(3-trifluoromethyl-4-((1S,4S)-5-methyl-2,5-diazabicyclo[2.2.1]heptan-2-yl)phenyl)pyrimidin-2-amine] | < 1000 nM | –
Cc1cc(Nc2nccc(-c3ccc4c(c3)CCCC(=O)N4)n2)ccc1N1CCN2C(C1)[C@H]1CC[C@@H]2C1 (stereo partly drawn) [compound 278, 4-(2-oxo-2,3,4,5-tetrahydro-1H-benzo[b]azepin-7-yl)-N-(3-methyl-4-((6R,9S)-6,9-methanooctahydro-1H-pyrido[1,2-a]pyrazin-2-yl)phenyl)pyrimidin-2-amine] | – | < 1000 nM
Cc1cc(Nc2nccc(-c3cnc4c(c3)OC(C)(C)C(=O)N4)n2)ccc1N1C[C@@H]2C[C@H]1CN2S(C)(=O)=O [compound 29, 4-(2,2-dimethyl-3-oxo-3,4-dihydro-2H-pyrido[3,2-b][1,4]oxazin-7-yl)-N-(3-methyl-4-((1S,4S)-5-(methylsulfonyl)-2,5-diazabicyclo[2.2.1]heptan-2-yl)phenyl)pyrimidin-2-amine] | < 1000 nM | –
Cc1cc(Nc2nccc(-c3ccc(NCCCN(C)C)nc3)n2)ccc1N1C[C@@H]2C[C@H]1CO2 [compound 203, 4-(6-(3-dimethylamino)propylaminopyridin-3-yl)-N-(3-methyl-4-((1S,4S)-5-oxa-2-azabicyclo[2.2.1]heptan-2-yl)phenyl)pyrimidin-2-amine] | – | < 1000 nM
CN1C2CCC1CN(c1ccc(Nc3nccc(-c4ccc(NS(C)(=O)=O)nc4)n3)cc1)C2 [compound 156, 4-(6-(methylsulfonylamino)pyridin-3-yl)-N-(4-(8-methyl-3,8-diazabicyclo[3.2.1]octan-3-yl)phenyl)pyrimidin-2-amine] | 1000 to 10000 nM | –
Cc1cc(Nc2nccc(-c3ccc(N4CCOCC4)nc3)n2)ccc1N1C[C@@H]2C[C@H]1CO2 [compound 194, 4-(6-(morpholin-4-yl)pyridin-3-yl)-N-(3-methyl-4-((1S,4S)-5-oxa-2-azabicyclo[2.2.1]heptan-2-yl)phenyl)pyrimidin-2-amine] | – | < 1000 nM
CN1CCOc2cc(-c3ccnc(Nc4ccc(N5C[C@@H]6C[C@H]5CN6C)cc4)n3)cnc21 [compound 185, 4-(4-methyl-3,4-dihydro-2H-pyrido[3,2-b][1,4]oxazin-7-yl)-N-(4-((1S,4S)-5-methyl-2,5-diazabicyclo[2.2.1]heptan-2-yl)phenyl)pyrimidin-2-amine] | < 1000 nM | –
CN1C[C@@H]2C[C@H]1CN2c1ccc(Nc2nccc(-c3ccnc(N4CCOCC4)c3F)n2)cc1F [compound 39, 4-(3-fluoro-2-(morpholin-4-yl)pyridin-4-yl)-N-(3-fluoro-4-((1S,4S)-5-methyl-2,5-diazabicyclo[2.2.1]heptan-2-yl)phenyl)pyrimidin-2-amine] | 1000 to 10000 nM | –

Further lines, results first:

GI50 [1] | GI50 [2] | Compound
< 1000 nM | – | Cc1cc(Nc2nccc(-c3ccc(NC4CCCCC4)nc3)n2)ccc1N1C[C@@H]2C[C@H]1CN2C [compound 78, 4-(6-(cyclohexylamino)pyridin-3-yl)-N-(3-methyl-4-((1S,4S)-5-methyl-2,5-diazabicyclo[2.2.1]heptan-2-yl)phenyl)pyrimidin-2-amine]
< 1000 nM | – | CCN1C[C@@H]2C[C@H]1CN2c1ccc(Nc2nccc(-c3cnc4c(c3)OC(C)(C)C(=O)N4)n2)cc1C [compound 30, 4-(2,2-dimethyl-3-oxo-3,4-dihydro-2H-pyrido[3,2-b][1,4]oxazin-7-yl)-N-(3-methyl-4-((1S,4S)-5-ethyl-2,5-diazabicyclo[2.2.1]heptan-2-yl)phenyl)pyrimidin-2-amine]
1000 to 10000 nM | – | Cc1cc(Nc2nccc(-c3ccc(N4CCOCC4)nc3)n2)ccc1N1C[C@@H]2C[C@H]1CN2CC(F)(F)F [compound 36, 4-(6-(morpholin-4-yl)pyridin-3-yl)-N-(3-methyl-4-((1S,4S)-5-(2,2,2-trifluoroethyl)-2,5-diazabicyclo[2.2.1]heptan-2-yl)phenyl)pyrimidin-2-amine]
– | < 1000 nM | COCCN(C)c1ccc(-c2ccnc(Nc3ccc(N4C[C@@H]5C[C@H]4CO5)c(C)c3)n2)cn1 [compound 220, 4-(6-(2-methoxyethyl)(methyl)aminopyridin-3-yl)-N-(3-methyl-4-((1S,4S)-5-oxa-2-azabicyclo[2.2.1]heptan-2-yl)phenyl)pyrimidin-2-amine]
< 1000 nM | – | Cc1cc(Nc2nccc(-c3cnn(-c4ccc(F)cc4)c3)n2)ccc1N1C[C@@H]2C[C@H]1CN2C [compound 109, 4-(1-(4-fluorophenyl)-1H-pyrazol-4-yl)-N-(3-methyl-4-((1S,4S)-5-methyl-2,5-diazabicyclo[2.2.1]heptan-2-yl)phenyl)pyrimidin-2-amine]
1000 to 10000 nM | – | Cc1cc(Nc2nccc(-c3ccc(-c4ncc(-c5ccc(N(C)C)cc5)o4)cc3)n2)ccc1N1C[C@@H]2C[C@H]1CN2C [compound 104, 4-(4-(5-(4-dimethylaminophenyl)oxazol-2-yl)phenyl)-N-(3-methyl-4-((1S,4S)-5-methyl-2,5-diazabicyclo[2.2.1]heptan-2-yl)phenyl)pyrimidin-2-amine]
– | < 1000 nM | Cc1cc(Nc2nccc(-c3ccc4c(ccn4-c4ccncc4)c3)n2)ccc1N1C[C@@H]2C[C@H]1CN2CC(C)C [compound 235, 4-(1-(pyridin-4-yl)-1H-indol-5-yl)-N-(3-methyl-4-((1S,4S)-5-isobutyl-2,5-diazabicyclo[2.2.1]heptan-2-yl)phenyl)pyrimidin-2-amine]
< 1000 nM | – | Cc1cc(Nc2nccc(-c3cnc(N4CCOCC4)c(C)c3)n2)ccc1N1C[C@@H]2C[C@H]1CN2C [compound 60, 4-(5-methyl-6-(morpholin-4-yl)pyridin-3-yl)-N-(3-methyl-4-((1S,4S)-5-methyl-2,5-diazabicyclo[2.2.1]heptan-2-yl)phenyl)pyrimidin-2-amine]
< 1000 nM | – | Cc1cc(Nc2nccc(-c3ccc(NS(C)(=O)=O)cc3)n2)ccc1N1C[C@@H]2C[C@H]1CN2C [compound 136, 4-(4-(methylsulfonylamino)phenyl)-N-(3-methyl-4-((1S,4S)-5-methyl-2,5-diazabicyclo[2.2.1]heptan-2-yl)phenyl)pyrimidin-2-amine]
1000 to 10000 nM | – | Cc1cc(Nc2nccc(-c3ccc(NCCNS(=O)(=O)C4CC4)nc3)n2)ccc1N1C[C@@H]2C[C@H]1CN2C [compound 99, 4-(6-((2-(cyclopropylsulfonyl)aminoethyl)-amino)pyridin-3-yl)-N-(3-methyl-4-((1S,4S)-5-methyl-2,5-diazabicyclo[2.2.1]heptan-2-yl)phenyl)pyrimidin-2-amine]
< 1000 nM | – | CN(C)c1ccc(-c2ccnc(Nc3ccc(N4C[C@@H]5C[C@H]4CN5C)cc3)n2)cn1 [compound 183, 4-(6-(dimethylamino)pyridin-3-yl)-N-(4-((1S,4S)-5-methyl-2,5-diazabicyclo[2.2.1]heptan-2-yl)phenyl)pyrimidin-2-amine]
